The results in this text go back to article PMC8160793, “Potent Antimicrobial and Antibiofilm Activities of Feleucin-K3 Analogs Modified by α-(4-Pentenyl)-Ala against Multidrug-Resistant Bacteria” (Biomolecules, 2021).

In one assay the test system is S. aureus ATCC 25923. The assay is classed as cell-based, Staphylococcus aureus. The note with it: ATCC 25923, 18 h. The protocol: (§1) The minimum inhibitory concentration (MIC) of the Feleucin-K3 analogs was tested by the broth microdilution method. Sensitive bacteria and drug-resistant bacteria were diluted to 1 × 10^6 CFU/mL, according to the McFarland standards. Bacterial suspension and peptide solutions (8–128 μg/mL) were incubated at 37 °C for 18 h. The minimum concentration without obvious bacterial growth was the MIC of the peptides. The stability of the analogs in a physiological salt environment was also investigated. In brief, salt powder (450-mM NaCl) was dissolved in deionized water, and the following investigational steps were the same as those described before. The above steps were repeated several times, until the same value was obtained three times.

Another assay concerns A. baumannii ATCC 19606. It counts as cell-based, Acinetobacter baumannii. The note with it: ATCC 19606, 18 h. How it is done: as §1
The next assay relates to E. coli ATCC 25922. It counts as cell-based. The note with it: ATCC 25922, 18 h. The protocol:
as §1

The subject of the next assay is P. aeruginosa ATCC 27853. It counts as cell-based, Pseudomonas aeruginosa. The note with it: ATCC 27853, 18 h. The protocol:
as §1

A further assay concerns MRSA 51. The assay is classed as cell-based, Staphylococcus aureus. As to conditions: 51, 18 h. How it is done: as §1
In the next assay the test system is MRSA 23. It counts as cell-based, Staphylococcus aureus. The note with it: 23, 18 h. The protocol: as §1
A further assay has as its system MRSA 113. It counts as cell-based, Staphylococcus aureus. The note with it: 113, 18 h. How it is done:
as §1

In the next assay the test system is MRSA 71. It counts as cell-based, Staphylococcus aureus. The note with it: 71, 18 h. The protocol:
as §1

The subject of a further assay is MRSA 48. It counts as cell-based, Staphylococcus aureus. As to conditions: 48, 18 h. The protocol:
as §1

The subject of the next assay is MRSA 52. It counts as cell-based, Staphylococcus aureus. As to conditions: 52, 18 h. How it is done: as §1
A further assay relates to S. aureus 794. The assay is classed as cell-based, Staphylococcus aureus. As to conditions: 794, 18 h. How it is done: as §1
For a further assay, the system named is MRSA 54. The assay is classed as cell-based, Staphylococcus aureus. The note with it: 54, 18 h. How it is done:
as §1

A further assay has as its system MRSA 936. It counts as cell-based, Staphylococcus aureus. As to conditions: 936, 18 h. The protocol:
as §1

For a further assay, the system named is S. aureus 725. It counts as cell-based, Staphylococcus aureus. As to conditions: 725, 18 h. How it is done:
as §1

The test system of another assay is MRSA ATCC 33591. The assay is classed as cell-based, Staphylococcus aureus. As to conditions: ATCC 33591, 18 h. How it is done:
as §1

The test system of the next assay is MRSA 75. The assay is classed as cell-based, Staphylococcus aureus. As to conditions: 75, 18 h. The protocol:
as §1

For another assay, the system named is MRSA 74. The assay is classed as cell-based, Staphylococcus aureus. As to conditions: 74, 18 h. How it is done: as §1
A further assay relates to A. baumannii 9896. It counts as cell-based, Acinetobacter baumannii. As to conditions: 9896, 18 h. How it is done: as §1
For another assay, the system named is A. baumannii 91199. It counts as cell-based, Acinetobacter baumannii. The note with it: 91199, 18 h. The protocol:
as §1

The next assay has as its system A. baumannii 91810. The assay is classed as cell-based, Acinetobacter baumannii. The note with it: 91810, 18 h. The protocol: as §1
For a further assay, the system named is A. baumannii 51243. It counts as cell-based, Acinetobacter baumannii. As to conditions: 51243, 18 h. The protocol:
as §1

For the next assay, the system named is A. baumannii 9234. The assay is classed as cell-based, Acinetobacter baumannii. As to conditions: 9234, 18 h. The protocol:
as §1

A further assay has as its system A. baumannii 98110. The assay is classed as cell-based, Acinetobacter baumannii. The note with it: 98110, 18 h. How it is done:
as §1

Another assay concerns A. baumannii 9336. It counts as cell-based, Acinetobacter baumannii. As to conditions: 9336, 18 h. The protocol:
as §1

A further assay has as its system A. baumannii 92359. The assay is classed as cell-based, Acinetobacter baumannii. The note with it: 92359, 18 h. How it is done:
as §1

The test system of the next assay is A. baumannii 91869. It counts as cell-based, Acinetobacter baumannii. The note with it: 91869, 18 h. How it is done:
as §1

In the next assay the test system is A. baumannii 9840. The assay is classed as cell-based, Acinetobacter baumannii. The note with it: 9840, 18 h. The protocol: as §1
A further assay deals with A. baumannii 5444. It counts as cell-based, Acinetobacter baumannii. The note with it: 5444, 18 h. The protocol: as §1
For another assay, the system named is A. baumannii 8309. It counts as cell-based, Acinetobacter baumannii. As to conditions: 8309, 18 h. How it is done:
as §1

The subject of the next assay is A. baumannii 9236. The assay is classed as cell-based, Acinetobacter baumannii. As to conditions: 9236, 18 h. The protocol: as §1
The subject of the next assay is A. baumannii 9331. The assay is classed as cell-based, Acinetobacter baumannii. The note with it: 9331, 18 h. The protocol: as §1
A further assay concerns A. baumannii 91944. The assay is classed as cell-based, Acinetobacter baumannii. As to conditions: 91944, 18 h. The protocol: as §1
In the next assay the test system is A. baumannii 9828. It counts as cell-based, Acinetobacter baumannii. The note with it: 9828, 18 h. The protocol: as §1
Another assay deals with A. baumannii 97830. The assay is classed as cell-based, Acinetobacter baumannii. The note with it: 97830, 18 h. The protocol:
as §1

A further assay has as its system A. baumannii 91152. The assay is classed as cell-based, Acinetobacter baumannii. The note with it: 91152, 18 h. How it is done: as §1
The test system of the next assay is A. baumannii 822144. It counts as cell-based, Acinetobacter baumannii. As to conditions: 822144, 18 h. The protocol:
as §1

The next assay has as its system A. baumannii 91105. It counts as cell-based, Acinetobacter baumannii. The note with it: 91105, 18 h. How it is done:
as §1

In brackets after ≈: the same amount, converted by molar mass. Square brackets hold non-standard residues; d marks the D form. Ends that are not written are not given here. Peptide text beside a SMILES is read from it. ξ: configuration not given here. ξαMeGly(pent-4-enyl) = C=CCCCC(C)(N)C(=O)O

For `C=CCCCC(C)(N)C(=O)N[C@@H](CC(C)C)C(=O)N[C@@H](CCCCN)C(=O)N[C@@H](C)C(=O)N[C@@H](CCCCN)C(=O)N[C@@H](CCCCN)C(=O)N[C@@H](CC(C)C)C(=O)N[C@@H](CC(C)C)C(N)=O` (stereo partly drawn) [Feleucin-K66] (H-[ξαMeGly(pent-4-enyl)]LKAKKLL-NH2), in the assay with S. aureus ATCC 25923, the “MIC, S. aureus ATCC 25923” value is over 128 µg/mL. In the assay with A. baumannii ATCC 19606, the “MIC, A. baumannii ATCC 19606” value was over 128 µg/mL. Moreover, the “MIC, E. coli ATCC 25922” value in the assay with E. coli ATCC 25922 is over 128 µg/mL. For the same molecule, the “MIC, P. aeruginosa ATCC 27853” value with P. aeruginosa ATCC 27853 was over 128 µg/mL.
For the molecule `C=CCCCC(C)(NC(=O)[C@H](CC(C)C)NC(=O)[C@H](CC(C)C)NC(=O)[C@H](CCCCN)NC(=O)[C@H](CC(C)C)NC(=O)[C@@H](N)Cc1ccccc1)C(=O)N[C@@H](CCCCN)C(=O)N[C@@H](CC(C)C)C(=O)N[C@@H](CC(C)C)C(N)=O` (stereo partly drawn) [Feleucin-K71] (H-FLKLL[ξαMeGly(pent-4-enyl)]KLL-NH2), the “MIC, MRSA 51” value with MRSA 51 stood at 4 µg/mL (≈ 3.55 µM). The “MIC, MRSA 23” value against MRSA 23 worked out at 4 µg/mL (≈ 3.55 µM). Further, in the assay on MRSA 113, the “MIC, MRSA 113” value was found to be 4 µg/mL (≈ 3.55 µM). The “MIC, MRSA 71” value in the assay with MRSA 71 amounted to 4 µg/mL (≈ 3.55 µM). Moreover, the “MIC, MRSA 48” value in the assay on MRSA 48 worked out at 4 µg/mL (≈ 3.55 µM). Further, in the assay on MRSA 52, the “MIC, MRSA 52” value was 4 µg/mL (≈ 3.55 µM). In addition, the “MIC, S. aureus 794” value in the assay with S. aureus 794 was 16 µg/mL (≈ 14.2 µM). Also, the “MIC, MRSA 54” value with MRSA 54 was found to be 4 µg/mL (≈ 3.55 µM). Moreover, the “MIC, MRSA 936” value against MRSA 936 was found to be 4 µg/mL (≈ 3.55 µM). For the same molecule, in the assay on S. aureus 725, the “MIC, S. aureus 725” value worked out at 4 µg/mL (≈ 3.55 µM). For the same molecule, in the assay with MRSA ATCC 33591, the “MIC, MRSA ATCC 33591” value was determined as 4 µg/mL (≈ 3.55 µM). Moreover, the “MIC, MRSA 75” value with MRSA 75 came to 4 µg/mL (≈ 3.55 µM). For the same molecule, in the assay with MRSA 74, the “MIC, MRSA 74” value came to 4 µg/mL (≈ 3.55 µM). Further, the “MIC, S. aureus ATCC 25923” value against S. aureus ATCC 25923 was 4 µg/mL (≈ 3.55 µM). Further, in the assay with A. baumannii 9896, the “MIC, A. baumannii 9896” value was 8 µg/mL (≈ 7.11 µM). Besides, in the assay with A. baumannii 91199, the “MIC, A. baumannii 91199” value turned out to be 16 µg/mL (≈ 14.2 µM). Further, the “MIC, A. baumannii 91810” value in the assay on A. baumannii 91810 came to 16 µg/mL (≈ 14.2 µM). In addition, the “MIC, A. baumannii 51243” value in the assay on A. baumannii 51243 was determined as 32 µg/mL (≈ 28.4 µM). For the same molecule, the “MIC, A. baumannii 9234” value in the assay with A. baumannii 9234 was 8 µg/mL (≈ 7.11 µM). In addition, in the assay with A. baumannii 98110, the “MIC, A. baumannii 98110” value was 16 µg/mL (≈ 14.2 µM). Further, the “MIC, A. baumannii 9336” value in the assay on A. baumannii 9336 stood at 8 µg/mL (≈ 7.11 µM). In addition, the “MIC, A. baumannii 92359” value in the assay with A. baumannii 92359 worked out at 16 µg/mL (≈ 14.2 µM). The “MIC, A. baumannii ATCC 19606” value against A. baumannii ATCC 19606 was found to be 4 µg/mL (≈ 3.55 µM). The “MIC, A. baumannii 91869” value in the assay on A. baumannii 91869 is 8 µg/mL (≈ 7.11 µM). The “MIC, A. baumannii 9840” value against A. baumannii 9840 was 8 µg/mL (≈ 7.11 µM). Also, the “MIC, A. baumannii 5444” value against A. baumannii 5444 stood at 8 µg/mL (≈ 7.11 µM). In addition, the “MIC, A. baumannii 8309” value with A. baumannii 8309 was 8 µg/mL (≈ 7.11 µM). In addition, the “MIC, A. baumannii 9236” value in the assay with A. baumannii 9236 was 16 µg/mL (≈ 14.2 µM). Moreover, the “MIC, A. baumannii 9331” value with A. baumannii 9331 was determined as 64 µg/mL (≈ 56.9 µM). Besides, in the assay with A. baumannii 91944, the “MIC, A. baumannii 91944” value amounted to 16 µg/mL (≈ 14.2 µM). Moreover, in the assay with A. baumannii 9828, the “MIC, A. baumannii 9828” value was 16 µg/mL (≈ 14.2 µM). Moreover, in the assay on A. baumannii 97830, the “MIC, A. baumannii 97830” value was 32 µg/mL (≈ 28.4 µM). The “MIC, A. baumannii 91152” value in the assay on A. baumannii 91152 amounted to 16 µg/mL (≈ 14.2 µM). For the same molecule, the “MIC, A. baumannii 822144” value against A. baumannii 822144 was determined as 16 µg/mL (≈ 14.2 µM). In addition, the “MIC, A. baumannii 91105” value against A. baumannii 91105 was found to be 8 µg/mL (≈ 7.11 µM). In addition, the “MIC, E. coli ATCC 25922” value against E. coli ATCC 25922 amounted to 16 µg/mL (≈ 14.2 µM). Also, the “MIC, P. aeruginosa ATCC 27853” value against P. aeruginosa ATCC 27853 was 8 µg/mL (≈ 7.11 µM).
As for LKLLKKLL-NH2 [Feleucin-K63], the “MIC, S. aureus ATCC 25923” value in the assay on S. aureus ATCC 25923 was over 128 µg/mL. Further, in the assay on A. baumannii ATCC 19606, the “MIC, A. baumannii ATCC 19606” value is over 128 µg/mL. In addition, the “MIC, E. coli ATCC 25922” value in the assay with E. coli ATCC 25922 is over 128 µg/mL. In the assay with P. aeruginosa ATCC 27853, the “MIC, P. aeruginosa ATCC 27853” value stood at 64 µg/mL.
